For 6 cell lines, relative viability results are on record in the supplement of paper PMC10307832.

Experiment in all cases: relative viability (nuclei count vs DMSO), 5 days (fraction); higher = more cells survive
Compound in the experiment “Seliciclib + Trametinib”: CC[C@H](CO)Nc1nc(NCc2ccccc2)c2ncn(C(C)C)c2n1 [Seliciclib] + CC(=O)Nc1cccc(-n2c(=O)n(C3CC3)c(=O)c3c(Nc4ccc(I)cc4F)n(C)c(=O)c(C)c32)c1 [Trametinib] (partner 0.02 µM)
In a few lines:
(§1)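 Values are medians from duplicate plates. Each reflects relative viability, defined as the nuclei count of treated wells over that of vehicle wells. Lung cancer cell lines in 1536-well plates were pin-tool dosed one day after seeding with one drug alone or with a fixed anchor-drug dose plus five library-drug doses (not always all listed) in √10 steps, then fixed, stained and imaged at 4× after 5 days.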

Compound in the experiment “Seliciclib + Navitoclax”: CC[C@H](CO)Nc1nc(NCc2ccccc2)c2ncn(C(C)C)c2n1 [Seliciclib] + CC1(C)CCC(c2ccc(Cl)cc2)=C(CN2CCN(c3ccc(C(=O)NS(=O)(=O)c4ccc(N[C@H](CCN5CCOCC5)CSc5ccccc5)c(S(=O)(=O)C(F)(F)F)c4)cc3)CC2)C1 [Navitoclax] (partner 0.5 µM)
Summed up: as §1

Compound in the experiment “Seliciclib + Phenformin”: CC[C@H](CO)Nc1nc(NCc2ccccc2)c2ncn(C(C)C)c2n1 [Seliciclib] + N=C(N)NC(=N)NCCc1ccccc1 [Phenformin] (partner 250 µM)
In a few lines: as §1

Compound in the experiment “Seliciclib + Pemetrexed”: CC[C@H](CO)Nc1nc(NCc2ccccc2)c2ncn(C(C)C)c2n1 [Seliciclib] + Nc1nc2[nH]cc(CCc3ccc(C(=O)N[C@@H](CCC(=O)O)C(=O)O)cc3)c2c(=O)[nH]1 [Pemetrexed] (partner 0.2 µM)
In a few lines:
as §1

On to PC-3 [JPC-3], for which the relative viability was 0.754 with Seliciclib + Trametinib (first compound 0.08 µM); 0.861 with Seliciclib + Trametinib (first compound 0.253 µM); 0.721 in the experiment with Seliciclib + Trametinib (first compound 0.8 µM); 0.577 in the experiment with Seliciclib + Trametinib (first compound 2.53 µM); 0.528 in the experiment with Seliciclib + Trametinib (first compound 8 µM); 0.829 in the experiment with Seliciclib + Navitoclax (first compound 0.08 µM). In addition, the relative viability with Seliciclib + Navitoclax (first compound 0.253 µM) amounted to 0.84; in the experiment with Seliciclib + Navitoclax (first compound 0.8 µM), 0.77; in the experiment with Seliciclib + Navitoclax (first compound 2.53 µM) it was 0.786; with Seliciclib + Navitoclax (first compound 8 µM), 0.751; in the experiment with Seliciclib + Phenformin (first compound 0.08 µM), 0.477; with Seliciclib + Phenformin (first compound 0.253 µM) it was 0.459. In addition, the relative viability stood at 0.453 with Seliciclib + Phenformin (first compound 0.8 µM); 0.49 in the experiment with Seliciclib + Phenformin (first compound 2.53 µM); 0.433 in the experiment with Seliciclib + Phenformin (first compound 8 µM); 1.11 in the experiment with Seliciclib + Pemetrexed (first compound 0.08 µM); 1.17 in the experiment with Seliciclib + Pemetrexed (first compound 0.253 µM); 1.08 with Seliciclib + Pemetrexed (first compound 0.8 µM). In addition, the relative viability with Seliciclib + Pemetrexed (first compound 2.53 µM) was 0.995; in the experiment with Seliciclib + Pemetrexed (first compound 8 µM) it was 0.968.

Regarding NCI-H1993, the relative viability with Seliciclib + Trametinib (first compound 0.08 µM) was 0.649; in the experiment with Seliciclib + Trametinib (first compound 0.253 µM) it was 0.543; with Seliciclib + Trametinib (first compound 0.8 µM), 0.47; with Seliciclib + Trametinib (first compound 2.53 µM), 0.508; with Seliciclib + Trametinib (first compound 8 µM) it was 0.43; in the experiment with Seliciclib + Navitoclax (first compound 0.08 µM), 0.937. The relative viability in the experiment with Seliciclib + Navitoclax (first compound 0.253 µM) came to 0.635; with Seliciclib + Navitoclax (first compound 0.8 µM) it was 0.927; in the experiment with Seliciclib + Navitoclax (first compound 2.53 µM) it was 0.962; in the experiment with Seliciclib + Navitoclax (first compound 8 µM), 0.849; in the experiment with Seliciclib + Phenformin (first compound 0.08 µM) it was 0.551; in the experiment with Seliciclib + Phenformin (first compound 0.253 µM), 0.54. The relative viability was 0.496 with Seliciclib + Phenformin (first compound 0.8 µM); 0.474 with Seliciclib + Phenformin (first compound 2.53 µM); 0.456 with Seliciclib + Phenformin (first compound 8 µM); 0.601 in the experiment with Seliciclib + Pemetrexed (first compound 0.08 µM); 0.597 with Seliciclib + Pemetrexed (first compound 0.253 µM); 0.608 with Seliciclib + Pemetrexed (first compound 0.8 µM). In addition, the relative viability with Seliciclib + Pemetrexed (first compound 2.53 µM) was 0.507; in the experiment with Seliciclib + Pemetrexed (first compound 8 µM), 0.456.

Consider NCI-H1944, for which the relative viability is 0.399 with Seliciclib + Trametinib (first compound 0.08 µM); 0.277 in the experiment with Seliciclib + Trametinib (first compound 0.253 µM); 0.428 with Seliciclib + Trametinib (first compound 0.8 µM); 0.48 with Seliciclib + Trametinib (first compound 2.53 µM); 0.368 with Seliciclib + Trametinib (first compound 8 µM); 0.987 with Seliciclib + Navitoclax (first compound 0.08 µM). Besides, the relative viability with Seliciclib + Navitoclax (first compound 0.253 µM) was 1.01; in the experiment with Seliciclib + Navitoclax (first compound 0.8 µM), 0.946; with Seliciclib + Navitoclax (first compound 2.53 µM), 1.11; with Seliciclib + Navitoclax (first compound 8 µM), 0.871; with Seliciclib + Phenformin (first compound 0.08 µM) it was 0.188; with Seliciclib + Phenformin (first compound 0.253 µM) it was 0.22. For the same cell line, the relative viability worked out at 0.168 with Seliciclib + Phenformin (first compound 0.8 µM); 0.178 with Seliciclib + Phenformin (first compound 2.53 µM); 0.168 in the experiment with Seliciclib + Phenformin (first compound 8 µM); 0.575 with Seliciclib + Pemetrexed (first compound 0.08 µM); 0.634 with Seliciclib + Pemetrexed (first compound 0.253 µM); 0.453 in the experiment with Seliciclib + Pemetrexed (first compound 0.8 µM). Besides, the values for the relative viability in the experiment with Seliciclib + Pemetrexed (first compound 2.53 µM) and with Seliciclib + Pemetrexed (first compound 8 µM) were 0.608 and 0.428, respectively.

With NCI-H1915, the relative viability came out at 0.315 in the experiment with Seliciclib + Trametinib (first compound 0.08 µM); 0.277 in the experiment with Seliciclib + Trametinib (first compound 0.253 µM); 0.307 in the experiment with Seliciclib + Trametinib (first compound 0.8 µM); 0.292 in the experiment with Seliciclib + Trametinib (first compound 2.53 µM); 0.288 with Seliciclib + Trametinib (first compound 8 µM); 0.776 with Seliciclib + Navitoclax (first compound 0.08 µM). Moreover, the relative viability in the experiment with Seliciclib + Navitoclax (first compound 0.253 µM) was determined as 0.779; with Seliciclib + Navitoclax (first compound 0.8 µM), 0.759; with Seliciclib + Navitoclax (first compound 2.53 µM), 0.8; with Seliciclib + Navitoclax (first compound 8 µM) it was 0.618; with Seliciclib + Phenformin (first compound 0.08 µM) it was 0.448; with Seliciclib + Phenformin (first compound 0.253 µM), 0.403. For the same cell line, the relative viability came to 0.376 in the experiment with Seliciclib + Phenformin (first compound 0.8 µM); 0.373 with Seliciclib + Phenformin (first compound 2.53 µM); 0.328 with Seliciclib + Phenformin (first compound 8 µM); 0.483 with Seliciclib + Pemetrexed (first compound 0.08 µM); 0.483 with Seliciclib + Pemetrexed (first compound 0.253 µM); 0.492 in the experiment with Seliciclib + Pemetrexed (first compound 0.8 µM). The figures for the relative viability with Seliciclib + Pemetrexed (first compound 2.53 µM) and with Seliciclib + Pemetrexed (first compound 8 µM) were 0.604 and 0.514, respectively.

RERF-LC-KJ: the relative viability turned out to be 0.872 in the experiment with Seliciclib + Trametinib (first compound 0.08 µM); 0.748 in the experiment with Seliciclib + Trametinib (first compound 0.253 µM); 0.807 with Seliciclib + Trametinib (first compound 0.8 µM); 0.824 with Seliciclib + Trametinib (first compound 2.53 µM); 0.744 with Seliciclib + Trametinib (first compound 8 µM); 0.759 with Seliciclib + Navitoclax (first compound 0.08 µM). Further, the relative viability in the experiment with Seliciclib + Navitoclax (first compound 0.253 µM) came to 0.673; in the experiment with Seliciclib + Navitoclax (first compound 0.8 µM) it was 0.812; with Seliciclib + Navitoclax (first compound 2.53 µM) it was 0.804; with Seliciclib + Navitoclax (first compound 8 µM), 0.651; with Seliciclib + Phenformin (first compound 0.08 µM) it was 0.44; in the experiment with Seliciclib + Phenformin (first compound 0.253 µM) it was 0.432. The relative viability is 0.401 with Seliciclib + Phenformin (first compound 0.8 µM); 0.44 with Seliciclib + Phenformin (first compound 2.53 µM); 0.345 in the experiment with Seliciclib + Phenformin (first compound 8 µM); 0.474 in the experiment with Seliciclib + Pemetrexed (first compound 0.08 µM); 0.54 with Seliciclib + Pemetrexed (first compound 0.253 µM); 0.488 in the experiment with Seliciclib + Pemetrexed (first compound 0.8 µM). The relative viability was 0.471 in the experiment with Seliciclib + Pemetrexed (first compound 2.53 µM) and 0.441 with Seliciclib + Pemetrexed (first compound 8 µM).

Turning to LOU-NH91, the relative viability in the experiment with Seliciclib + Trametinib (first compound 0.253 µM) came to 0.702; with Seliciclib + Trametinib (first compound 0.8 µM), 0.786; with Seliciclib + Trametinib (first compound 2.53 µM), 0.745; with Seliciclib + Trametinib (first compound 8 µM), 0.752; with Seliciclib + Navitoclax (first compound 0.08 µM) it was 0.591; in the experiment with Seliciclib + Navitoclax (first compound 0.253 µM) it was 0.61. In addition, the relative viability in the experiment with Seliciclib + Navitoclax (first compound 0.8 µM) turned out to be 0.591; with Seliciclib + Navitoclax (first compound 2.53 µM), 0.695; in the experiment with Seliciclib + Navitoclax (first compound 8 µM) it was 0.482; with Seliciclib + Phenformin (first compound 0.08 µM) it was 0.609; in the experiment with Seliciclib + Phenformin (first compound 0.253 µM), 0.666; with Seliciclib + Phenformin (first compound 0.8 µM) it was 0.671. The relative viability worked out at 0.589 in the experiment with Seliciclib + Phenformin (first compound 2.53 µM); 0.552 with Seliciclib + Phenformin (first compound 8 µM); 0.394 with Seliciclib + Pemetrexed (first compound 0.253 µM); 0.367 with Seliciclib + Pemetrexed (first compound 0.8 µM); 0.44 with Seliciclib + Pemetrexed (first compound 2.53 µM); 0.393 with Seliciclib + Pemetrexed (first compound 8 µM).
